Reference: patent US20070009593A1, “Methods of treating cancer” (Indianan University Advanced Research, priority 2002, published 2007)
Where two headings read alike, the source gives them in different places.

Columns and labels:
Surface EGFR = test: surface EGFR in breast cancer lines under ritonavir; type: cell-based, human; set-up: reference not given here
H460 = test: MTT assay, NSCLC cell line; type: cell-based; details: Homo sapiens
[1] = test system: calpain cleavage of α-fodrin; test: NFF score, IHC with PP1 antibody, ritonavir treated mice; type: in vivo; details: 10 days
Source text: Differentiation of the stratum spinosum of tongue epithelium was affected, with a reduction of nuclear involution as well as an increase in the keratinized layer (FIGS. 5A-5C). […] Previous observations of the proliferative rate of tongue compared to skin in mice indicate that tongue is a more proliferative epithelium (Hume, W. J. Cell Tissue Kinet. 19:195-203 (1986)).
The antiserum specific for the calpain-dependent α-fodrin cleavage, PP1, was used at 1:100 dilution. Competition with specific peptide blocked nuclear staining. The size bar is […]. […] Arrows indicate basal layer nuclei. The vertical bar indicates maximum thickness of the keratinized layer in each image.

MDA-436 = test: MTT assay, breast cancer line; type: cell-based; details: Homo sapiens, read-out: Ritonavir IC50; MDA-436 parental line
Protocol: (§1) The drugs were tested together at the ratio of their IC50 as single agents, over a 4-log range of concentrations. […] Viable cell number was measured by MTT assay.

MDA-231 = test: MTT assay, breast cancer line; type: cell-based; details: Homo sapiens
Protocol: as §1

MCF7 = test: MTT assay, breast cancer line; type: cell-based; details: Homo sapiens, MCF7, read-out: Ritonavir IC50
Protocol: as §1

SKBR-3 = test: MTT assay, breast cancer line; type: cell-based; details: Homo sapiens, SK-BR-3, read-out: Ritonavir IC50
Protocol: as §1

T47D = test: MTT assay, breast cancer line; type: cell-based; details: Homo sapiens, read-out: Ritonavir IC50
Protocol: as §1

[2] = test system: Caco 2 0.5-11 (calpastatin over-expressing); test: MTT assay, 96 well plate, 48 h; type: cell-based; details: Homo sapiens, Caco-2, read-out: Ritonavir IC50, 0.5-11 line (calpain activity reduction of 80%)
H23 = test: MTT assay, NSCLC cell line; type: cell-based; details: Homo sapiens, NCI-H23
Surface her2 = test: surface her2 in breast cancer lines under ritonavir; type: cell-based, human; details: SKBR-3, ritonavir treatment
MDA-MD-435 cells = test: proliferation assay, MTT, 24 hours; type: cell-based; details: Homo sapiens, 24 hours exposure, averaging 2 experiments
Protocol: Proliferation assays were done by plating cells in a 96 well plate at […] for the 231 cells and 5×10^3 cells per well for the 435 cells. The cells were allowed to attach and grow for 24 hours. […] The cells were allowed to grow for 24 hours and the number of viable cells was measured by MTT assay.

breast cancer lines = test: propidium iodide flow cytometry; type: cell-based, human; details: at the IC50 concentration of ritonavir
m-calpain = target: T1, m-calpain (Homo sapiens, UniProt P17655); test: ionomycin activated m-calpain activity in Caco 2A cells; type: cell-based; details: 0, 5, 10, 20, and 120 μM, FIG. 3
T1 construct: endogenous in cells; host or cells: Caco 2A
T1 sequence (P17655 20-700 limits assumed): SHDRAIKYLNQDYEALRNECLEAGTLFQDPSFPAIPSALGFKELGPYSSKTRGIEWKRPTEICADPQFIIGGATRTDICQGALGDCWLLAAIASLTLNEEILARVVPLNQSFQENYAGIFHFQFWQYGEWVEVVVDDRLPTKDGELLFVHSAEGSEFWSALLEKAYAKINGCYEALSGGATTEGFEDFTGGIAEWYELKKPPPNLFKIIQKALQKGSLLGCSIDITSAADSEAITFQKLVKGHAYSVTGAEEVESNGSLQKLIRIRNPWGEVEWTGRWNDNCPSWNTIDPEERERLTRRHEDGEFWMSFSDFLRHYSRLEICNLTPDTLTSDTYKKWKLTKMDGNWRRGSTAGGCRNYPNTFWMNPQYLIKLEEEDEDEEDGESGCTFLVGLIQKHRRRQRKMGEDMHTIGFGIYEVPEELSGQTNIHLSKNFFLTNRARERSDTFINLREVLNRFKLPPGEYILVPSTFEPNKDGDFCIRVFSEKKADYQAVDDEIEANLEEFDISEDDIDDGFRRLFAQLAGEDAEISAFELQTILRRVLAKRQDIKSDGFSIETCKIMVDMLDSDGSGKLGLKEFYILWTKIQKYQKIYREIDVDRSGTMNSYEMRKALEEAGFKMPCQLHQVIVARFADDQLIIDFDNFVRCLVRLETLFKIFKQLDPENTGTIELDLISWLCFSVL
T1 sequence (P04632 whole entry partner): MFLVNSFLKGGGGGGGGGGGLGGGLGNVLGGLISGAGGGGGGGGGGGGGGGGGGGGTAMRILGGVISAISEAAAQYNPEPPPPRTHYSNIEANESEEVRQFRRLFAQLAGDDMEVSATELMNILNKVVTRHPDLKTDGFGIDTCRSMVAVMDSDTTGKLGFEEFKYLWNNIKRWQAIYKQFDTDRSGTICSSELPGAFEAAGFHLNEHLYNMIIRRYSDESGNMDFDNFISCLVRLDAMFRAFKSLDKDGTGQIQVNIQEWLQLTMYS
Protocol: (The Caco 2a calls were treated and analyzed as in Example 4).

[3] = ritonavir serum levels in mice
[4] = test system: MDA-436IκBSR (super-repressor of NF-κB over-expressed); test: MTT assay, breast cancer line; type: cell-based; details: Homo sapiens, read-out: Ritonavir IC50
[5] = test system: MDA-MB-231 human breast cancer tumors; test: MDA-MB-231 xenograft model; type: in vivo, nude mice; details: 40 mg/kg
Protocol: (Tumor size was measured by the method volume in cubic mm=length×[width]squared/2.) The tumors in this preliminary experiment took 7 weeks to grow and represent established tumors. […] FIG. 6B confirms the finding of 6A, showing that all three of the control tumors progressed. […] FIG. 6C depicts weight of the tumor when measured at days 1, 6, 9, and 13. FIG. 6D depicts weight of the animal when measured at days 1, 3, 6, 10, and 13.

[6] = test system: MDA-436LXSN (vector control line); test: MTT assay, breast cancer line; type: cell-based; details: Homo sapiens, read-out: Ritonavir IC50
[7] = test system: Caco 2 2-3 (calpastatin over-expressing); test: MTT assay, 96 well plate, 48 h; type: cell-based; details: Homo sapiens, Caco-2, read-out: Ritonavir IC50, 2-3 line
Caco 2 cells = test: proliferation / combination assay in colon cancer cells; type: cell-based; details: Homo sapiens
HUVEC [8] = test: HUVEC tubule formation assay; type: cell-based; details: Homo sapiens, 72 h, fibrin gel, VEGF and bFGF, counted at three days, read-out: IC50, formation of new endothelial cell tubules
Protocol: Endothelial cell tubule formation in a fibrin clot is an analog of angiogenesis and was used to assay angiogenesis inhibitors (Brown et al., Lab. Investig. 75:539, 1996). HUVEC were coated on Cytodex™ microcarrier beads (Pharmacia) at a density of 30 HUVEC per bead, in a siliconized dish containing HUVEC complete medium, for 24 hours. […] Tubules were counted at three days.

HUVEC [9] = test: HUVEC cell spreading assay; type: cell-based, human; details: 40 μM
Protocol: Cells were fixed in 3.7% formaldehyde in PBS, blocked and stained with Oregon-green phalloidin 514 (Molecular Probes), and then digitally photographed using a Zeiss inverted fluorescence microscope equipped with a CCD camera. Cell areas were measured on the digital images using the Spot program (Diagnostic Imaging).

For `CC(C)c1nc(CN(C)C(=O)N[C@H](C(=O)N[C@@H](Cc2ccccc2)C[C@H](O)[C@H](Cc2ccccc2)NC(=O)OCc2cncs2)C(C)C)cs1` [Ritonavir, ritonavir], which “Surface EGFR (Ritonavir)” value (Surface EGFR; MCF7, ritonavir treatment) is on record?
The value was 1.

And the “Surface EGFR (Ritonavir)” value (Surface EGFR; MDA-231, ritonavir treatment)?
Its value is 0.5.

What about the “Surface EGFR (Ritonavir)” value (Surface EGFR; MDA-436, ritonavir treatment) of the same compound?
The value was 0.5.

And the “Surface EGFR (Ritonavir)” value (Surface EGFR; SKBR-3, ritonavir treatment)?
Its value is 0.36.

What about the “Surface EGFR (Ritonavir)” value (Surface EGFR; T47D, ritonavir treatment) of the same compound?
The value was 1.

And the IC50 (H460; NCI-H460)?
The IC50 was 47.5 µM.

And the IC80 (H460; NCI-H460, single agent)?
The IC80 was 100 µM.

And the NFF score ([1]; tongue basal cell layer, 12 μM peak)?
Its NFF score is 34%.

What about the NFF score ([1]; tongue basal cell layer, 67 μM peak) of the same compound?
Its NFF score is 1%.

What about the NFF score ([1]; ventral skin basal cell layer, 12 μM peak) of the same compound?
The NFF score was 27%.

What about the NFF score ([1]; ventral skin basal cell layer, 67 μM peak) of the same compound?
Its NFF score is 17%.

What about the IC50 (MDA-436) of the same compound?
The IC50 was 40 µM.

What about the IC50 (MDA-231; MDA-MB-231, read-out: Ritonavir IC50, MDA-231) of the same compound?
The IC50 was 50 µM.

And the IC50 (MDA-231; MDA-MB-231, MDA-231, 48 hours, MTT, single agent, read-out: IC50)?
Its IC50 is 60 µM.

What about the IC50 (MCF7) of the same compound?
The IC50 was 25 µM.

And the IC50 (SKBR-3)?
Its IC50 is 60 µM.

What about the IC50 (T47D) of the same compound?
The IC50 was 12 µM.

What about the IC50 [2] of the same compound?
Its IC50 is 15 µM.

And the IC50 (H23)?
Its IC50 is 44 µM.

And the “Surface her2 Ritonavir” value (Surface her2)?
Its value is 0.4.

And the IC50 (MDA-MD-435 cells)?
The IC50 was ~150 µM.

And the cell cycle (breast cancer lines)?
Its cell cycle is “induces cell cycle arrest”.

And the inomycin activated m-calpain (m-calpain)?
The inomycin activated m-calpain was “dose dependent decrease”.

What about the trough drug levels ([3]; Tween 80, ip injection) of the same compound?
The trough drug levels was “less than 0.1 μM”.

What about the peak ritonavir concentrations ([3]; oral gavage, Norvir liquid, 40 mg/kg body weight) of the same compound?
Its peak ritonavir concentrations is “less than 1 μM”.

What about the IC50 [4] of the same compound?
The IC50 was 26 µM.

What about the “growth rate of tumors” value ([5]; nude mice, FIG. 6C) of the same compound?
Its value is “decrease the growth rate of tumors”.

What about the “weight of the animal” value ([5]; nude mice, FIG. 6D) of the same compound?
The value was “without causing wasting of the mice”.

And the tumor response ([5]; three established tumors, FIG. 6A)?
Its tumor response is “two tumors of three exhibited stable disease”.

What about the IC50 [6] of the same compound?
The IC50 was 42 µM.

What about the IC50 [7] of the same compound?
Its IC50 is 20 µM.

What about the IC50 (Caco 2 cells; Caco-2, 48 h, read-out: IC50 (50% inhibition of proliferation)) of the same compound?
The IC50 was 30 µM.

And the IC50 (Caco 2 cells; Caco 2, single agent, read-out: IC50)?
The IC50 was 45 µM.

And the IC50 (HUVEC [8])?
Its IC50 is 16 µM.

What about the “reduction of cell area” value (HUVEC [9]; 1 hour of spreading) of the same compound?
Its value is 15%.

What about the cell area (HUVEC [9]; 1 hour spreading on fibronectin) of the same compound?
Its cell area is 4100±160 μm^2.
